# The supplement of paper PMC9663587
# Columns and labels:
# [1] = compound: CCCCOc1c(C(=O)c2c(F)cc(C)cc2F)c[nH]c2nncc1-2
# [2] = compound: CN1CCN(CCOc2cc(OC3CCOCC3)c3c(Nc4c(Cl)ccc5c4OCO5)ncnc3c2)CC1 [Saracatinib/AZD0530]
# [3] = compound: CNCc1ccc(-c2[nH]c3cc(F)cc4c3c2CCNC4=O)cc1 [Rucaparib]
# [4] = compound: T1, CN(C)C/C=C/C(=O)Nc1ccc(C(=O)N2CCC[C@@H](Nc3ncc(Cl)c(-c4c[nH]c5ccccc45)n3)C2)cc1 [THZ531]
# [5] = compound: CC(C)Nc1cc(-c2c[nH]c(C(=O)N[C@H](CO)c3cccc(Cl)c3)c2)c(Cl)cn1 [BVD523]
# [6] = compound: T2, CN(C)C/C=C/C(=O)Nc1ccc(C(=O)Nc2cccc(Nc3ncc(Cl)c(-c4c[nH]c5ccccc45)n3)c2)cc1 [THZ1]
# [7] = compound: COc1ccc2c(c1)[C@]1(C[C@H]1c1ccc3c(/C=C/c4ccc(CN5C[C@@H](C)O[C@@H](C)C5)cc4)n[nH]c3c1)C(=O)N2
# [8] = compound: Cc1nc(NC(=O)N2CCC[C@H]2C(N)=O)sc1-c1ccnc(C(C)(C)C(F)(F)F)c1 [Alpelisib/BYL719]
# [9] = compound: CO[C@@H](C)Cn1c(=O)n(C)c2cnc3ccc(-c4cncc(C(C)(C)O)c4)cc3c21
# [10] = compound: COc1cc2c(Oc3ccc4[nH]c(C)cc4c3F)ncnc2cc1OCCCN1CCCC1 [Cediranib/AZD2171]
# [11] = compound: CC(=O)Nc1cccc(-n2c(=O)n(C3CC3)c(=O)c3c(Nc4ccc(I)cc4F)n(C)c(=O)c(C)c32)c1
# [12] = compound: C=CCn1c(=O)c2cnc(Nc3ccc(N4CCN(C)CC4)cc3)nc2n1-c1cccc(C(C)(C)O)n1 [AZD1775]
# [13] = compound: C=CC(=O)Nc1ccc(C(=O)Nc2[nH]nc3c2CN(C(=O)N[C@H](CN(C)C)c2ccccc2)C3(C)C)cc1 [YKL-5-124]; assay: increase in dead-cell fraction, 72 h; higher = more death;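 further: breast cancer cell lines in 384-well plates, stained with Hoechst plus LIVE/DEAD far red dye and imaged, cells above an LDR intensity threshold counted dead, Hoechst-negative corpses included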
# [14] = compound: CC(=O)c1c(C)c2cnc(Nc3ccc(N4CCNCC4)cn3)nc2n(C2CCCC2)c1=O; assay: as above
# [15] = compound: T1, THZ531; assay: as above
# [16] = compound: T2, THZ1; assay: as above
# [17] = compound: CCc1cnn2c(NCc3ccc[n+]([O-])c3)cc(N3CCCC[C@H]3CCO)nc12; assay: as above
# [18] = compound: CN(C)C(=O)c1cc2cnc(Nc3ccc(N4CCNCC4)cn3)nc2n1C1CCCC1 [LEE011/Ribociclib]; assay: as above
# [19] = compound: CCOc1cc2ncc(C#N)c(Nc3ccc(OCc4ccccn4)c(Cl)c3)c2cc1NC(=O)/C=C/CN(C)C [Neratinib/HKI272]; assay: as above
# [20] = compound: CC(=O)c1c(C)c2cnc(Nc3ccc(N4CCN(CCOCCOCCOCCNC(=O)COc5cccc6c5C(=O)N(C5CCC(=O)NC5=O)C6=O)CC4)cn3)nc2n(C2CCCC2)c1=O [BSJ-03-123]; assay: as above
# 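Wherever GR50, 72 h is given: breast cancer and non-malignant breast epithelial cell lines, Deep Dye Drop or Dye Drop imaging, nine half-log doses, GR normalized to time-zero plates and DMSO-only controls.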
cell line,measurement,setting,value
BT549,"GR50, 72 h",[1],0.00106 µM
same,"GR50, 72 h",[2],> 10 µM
same,"GR50, 72 h",[3],> 10 µM
same,"GR50, 72 h",[4],0.302 µM
same,"GR50, 72 h",[5],> 10 µM
same,"GR50, 72 h",[6],0.0528 µM
same,"GR50, 72 h",[7],0.00315 µM
same,"GR50, 72 h",[8],> 10 µM
same,"GR50, 72 h",[9],0.00122 µM
same,"GR50, 72 h",[10],3.64 µM
same,"GR50, 72 h",[11],> 1 µM
same,"GR50, 72 h",[12],0.318 µM
same,increase in dead-cell fraction,[13]; 0.001 µM,0.0189
same,increase in dead-cell fraction,[13]; 0.003162 µM,0.0362
same,increase in dead-cell fraction,[13]; 0.01 µM,0.097
same,increase in dead-cell fraction,[13]; 0.03162 µM,0.158
same,increase in dead-cell fraction,[13]; 0.1 µM,0.169
same,increase in dead-cell fraction,[13]; 0.3162 µM,0.169
same,increase in dead-cell fraction,[13]; 1 µM,0.196
same,increase in dead-cell fraction,[13]; 3.162 µM,0.228
same,increase in dead-cell fraction,[13]; 10 µM,0.614
same,increase in dead-cell fraction,[14]; 0.0003162 µM,0.003
same,increase in dead-cell fraction,[14]; 0.001 µM,0.0092
same,increase in dead-cell fraction,[14]; 0.003162 µM,0.0021
same,increase in dead-cell fraction,[14]; 0.01 µM,0.0028
same,increase in dead-cell fraction,[14]; 0.03162 µM,-0.0008
same,increase in dead-cell fraction,[14]; 0.1 µM,0.0025
same,increase in dead-cell fraction,[14]; 0.3162 µM,-0.0015
same,increase in dead-cell fraction,[14]; 1 µM,-0.0066
same,increase in dead-cell fraction,[14]; 3.162 µM,-0.0162
same,increase in dead-cell fraction,[15]; 0.0001 µM,0
same,increase in dead-cell fraction,[15]; 0.0003162 µM,0
same,increase in dead-cell fraction,[15]; 0.001 µM,0.0005
same,increase in dead-cell fraction,[15]; 0.003162 µM,0.0003
same,increase in dead-cell fraction,[15]; 0.01 µM,-0.0022
same,increase in dead-cell fraction,[15]; 0.03162 µM,0.0026
same,increase in dead-cell fraction,[15]; 0.1 µM,0.0062
same,increase in dead-cell fraction,[15]; 0.3162 µM,0.0485
same,increase in dead-cell fraction,[15]; 1 µM,0.365
same,increase in dead-cell fraction,[16]; 0.0001 µM,-0.0033
same,increase in dead-cell fraction,[16]; 0.0003162 µM,-0.0013
same,increase in dead-cell fraction,[16]; 0.001 µM,-0.0005
same,increase in dead-cell fraction,[16]; 0.003162 µM,-0.0025
same,increase in dead-cell fraction,[16]; 0.01 µM,0.0024
same,increase in dead-cell fraction,[16]; 0.03162 µM,0.0096
same,increase in dead-cell fraction,[16]; 0.1 µM,0.112
same,increase in dead-cell fraction,[16]; 0.3162 µM,0.179
same,increase in dead-cell fraction,[16]; 1 µM,0.27
same,increase in dead-cell fraction,[17]; 0.0001 µM,-0.0017
same,increase in dead-cell fraction,[17]; 0.0003162 µM,-0.0119
same,increase in dead-cell fraction,[17]; 0.001 µM,0.0095
same,increase in dead-cell fraction,[17]; 0.003162 µM,0.0067
same,increase in dead-cell fraction,[17]; 0.01 µM,0.0717
same,increase in dead-cell fraction,[17]; 0.03162 µM,0.309
same,increase in dead-cell fraction,[17]; 0.1 µM,0.338
same,increase in dead-cell fraction,[17]; 0.3162 µM,0.295
same,increase in dead-cell fraction,[17]; 1 µM,0.346
same,increase in dead-cell fraction,[18]; 0.001 µM,0.0033
same,increase in dead-cell fraction,[18]; 0.003162 µM,-0.0034
same,increase in dead-cell fraction,[18]; 0.01 µM,-0.0015
same,increase in dead-cell fraction,[18]; 0.03162 µM,-0.0014
same,increase in dead-cell fraction,[18]; 0.1 µM,-0.0023
same,increase in dead-cell fraction,[18]; 0.3162 µM,-0.0023
same,increase in dead-cell fraction,[18]; 1 µM,-0.0003
same,increase in dead-cell fraction,[18]; 3.162 µM,0.0011
same,increase in dead-cell fraction,[18]; 10 µM,-0.0008
same,increase in dead-cell fraction,[19]; 0.0003162 µM,0.0052
same,increase in dead-cell fraction,[19]; 0.001 µM,0.0037
same,increase in dead-cell fraction,[19]; 0.003162 µM,0.0077
same,increase in dead-cell fraction,[19]; 0.01 µM,-0.001
same,increase in dead-cell fraction,[19]; 0.03162 µM,0.0074
same,increase in dead-cell fraction,[19]; 0.1 µM,-0.0081
same,increase in dead-cell fraction,[19]; 0.3162 µM,0.0066
same,increase in dead-cell fraction,[19]; 1 µM,0.0035
same,increase in dead-cell fraction,[19]; 3.162 µM,0.102
same,increase in dead-cell fraction,[20]; 0.001 µM,-0.0011
same,increase in dead-cell fraction,[20]; 0.003162 µM,-0.0008
same,increase in dead-cell fraction,[20]; 0.01 µM,-0.0008
same,increase in dead-cell fraction,[20]; 0.03162 µM,0.0023
same,increase in dead-cell fraction,[20]; 0.1 µM,0.0017
same,increase in dead-cell fraction,[20]; 0.3162 µM,-0.0023
same,increase in dead-cell fraction,[20]; 1 µM,0.0009
same,increase in dead-cell fraction,[20]; 3.162 µM,0.0085
same,increase in dead-cell fraction,[20]; 10 µM,0.184
